# Results reported in PubChem BioAssay (NCI).
#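 Compound exposure: 48 hours, 5 concentrations, 96-well plates. GI50 marks 50% less growth. TGI marks complete inhibition of growth.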
# Assays:
# Experiment in all cases: NCI anticancer screen, dose series, 48 h
# DMS 273 small cell lung = tested on: DMS 273 small cell lung
# HCT-116 colon = tested on: HCT-116 colon
# KM20L2 colon = tested on: KM20L2 colon
# MOLT-4 leukemia = tested on: MOLT-4 leukemia
# SK-MEL-5 melanoma = tested on: SK-MEL-5 melanoma
# DMS 114 small cell lung = tested on: DMS 114 small cell lung
# XF 498 CNS = tested on: XF 498 CNS
# M19-MEL melanoma = tested on: M19-MEL melanoma
# MCF7 breast = tested on: MCF7 breast
# MDA-MB-231 breast = tested on: MDA-MB-231 breast
# NCI/ADR-RES ovarian = tested on: NCI/ADR-RES ovarian
Compound,GI50 (DMS 273 small cell lung),TGI (DMS 273 small cell lung),GI50 (HCT-116 colon),TGI (HCT-116 colon),GI50 (KM20L2 colon),TGI (KM20L2 colon),GI50 (MOLT-4 leukemia),TGI (MOLT-4 leukemia),GI50 (SK-MEL-5 melanoma),TGI (SK-MEL-5 melanoma),TGI (DMS 114 small cell lung),TGI (XF 498 CNS),TGI (M19-MEL melanoma),TGI (MCF7 breast),TGI (MDA-MB-231 breast),TGI (NCI/ADR-RES ovarian),GI50 (MCF7 breast),GI50 (MDA-MB-231 breast),GI50 (NCI/ADR-RES ovarian)
CC(C)CC(=O)[O-].CC(C)CC(=O)[O-].N.N.N.N.[Co+3].[O-][Cl+3]([O-])([O-])[O-],> 100 µM,> 100 µM,> 100 µM,> 100 µM,> 100 µM,> 100 µM,> 100 µM,> 100 µM,> 100 µM,> 100 µM,,,,,,,,,
COc1ccc2ccc3c(c2c1)CN1CCc2cc(OC)c(OC)cc2C1C3 (stereo not drawn),,> 100 µM,,,,> 100 µM,,> 100 µM,,> 100 µM,> 100 µM,> 100 µM,,,,,,,
Cc1ccc(S(=O)(=O)C(CC(=O)N2CCCC2)C(=O)c2ccccc2)cc1 (stereo not drawn),,> 100 µM,,> 100 µM,,,,> 100 µM,,> 100 µM,> 100 µM,> 100 µM,,,,,,,
COC(=O)C1=C(C(=O)OC)C2C=CC1C1C(Cl)=C(Cl)C21 (stereo not drawn),,> 100 µM,,,,> 100 µM,,> 100 µM,,> 100 µM,> 100 µM,,> 100 µM,,,,,,
OCCC1(O)CCC(O)CC1 (stereo not drawn),,> 100 µM,,> 100 µM,,,,> 100 µM,,> 100 µM,> 100 µM,,> 100 µM,,,,,,
COC1C(CN[N+](=O)CC2OC3OC(C)(C)OC3C2OC)OC2OC(C)(C)OC21 (stereo not drawn),,> 100 µM,,> 100 µM,,,,> 100 µM,,> 100 µM,> 100 µM,,> 100 µM,,,,,,
CC1=C(C(=O)Nc2ccc([N+](=O)[O-])cc2)C(c2ccc(N(C)C)cc2)C(C(=O)Nc2ccc([N+](=O)[O-])cc2)=C(C)N1,,,,,,43.4 µM,,42.3 µM,,32.1 µM,,,33.2 µM,,,,,,
COc1cc(C2c3cc4c(cc3C(NCC(O)CO)C3COC(=O)[C@H]23)OCO4)cc(OC)c1OC (stereo partly drawn),,,,,,,,> 100 µM,,,0.245 µM,> 100 µM,> 100 µM,,,,,,
CCOc1ccc2c(c1)[n+]([O-])c(S(=O)(=O)c1ccc(C)cc1)c(N)[n+]2[O-],,,,> 100 µM,,> 100 µM,,> 100 µM,,> 100 µM,> 100 µM,,> 100 µM,,,,,,
CC1(C)CC(/C=C2/OC(=O)c3ccccc32)=C(C#N)C(=O)O1,,> 100 µM,,> 100 µM,,> 100 µM,,> 100 µM,,> 100 µM,,> 100 µM,> 100 µM,,,,,,
CC1OC(n2cc(F)c(=O)[nH]c2=O)CCC1O (stereo not drawn),,> 100 µM,,> 100 µM,,> 100 µM,,> 100 µM,,> 56.2 µM,,,> 100 µM,> 72.3 µM,> 100 µM,> 100 µM,,,
COc1ccc(C2=NN(C(=O)c3cc(OC)c(OC)c(OC)c3)C(c3ccc(C#N)cc3)C2)cc1OC (stereo not drawn),,,1.63 µM,> 44.2 µM,,,4.27 µM,> 100 µM,0.483 µM,6.67 µM,,,,> 88.9 µM,> 45.6 µM,11.1 µM,0.512 µM,2.86 µM,0.603 µM
COc1ccc2[nH]c3c(C)c4c(c(C)c3c2c1)CN(C)CC4,,29.6 µM,,11.8 µM,,34.8 µM,,74.1 µM,,32 µM,33.8 µM,,31.6 µM,,,,,,
CC1OC(O[C@H]2C[C@@H](O)[C@]3(CO)[C@H]4[C@H](O)C[C@]5(C)[C@@H](C6=CC(=O)OC6)CC[C@]5(O)[C@@H]4CC[C@]3(O)C2)C(O)C(O)C1O (stereo partly drawn),,,19 µM,33.7 µM,,,17.9 µM,41.8 µM,17.7 µM,35.2 µM,,,,42.7 µM,40.5 µM,39.9 µM,22.9 µM,21 µM,19.5 µM
CN(C)CCNc1cc(-c2ccccc2)nc2ccccc12,,,3.75 µM,18.8 µM,,,3.27 µM,11.6 µM,10.1 µM,22.4 µM,,,,19.7 µM,32.5 µM,53.3 µM,3.68 µM,7.45 µM,9.11 µM
Cc1nn(CN2CCN(C)CC2)c(=S)n1/N=C/c1cccc2ccccc12,,,18 µM,35.6 µM,,,19.1 µM,41.5 µM,16.9 µM,32.1 µM,,,,50.9 µM,44.4 µM,36.3 µM,20.1 µM,19.3 µM,19.3 µM
Cc1c(C(=O)N/N=C/c2ccc(Cl)cc2)nnn1-c1ccnc2c(C(F)(F)F)cccc12,,,2.31 µM,5.42 µM,,,6.39 µM,35.3 µM,28.4 µM,> 100 µM,,,,5.61 µM,6.08 µM,13.8 µM,2.27 µM,2.17 µM,3.86 µM
O=C1C=CC(=Nc2ccc3c(c2)C(Br)c2ccccc2-3)O1 (stereo not drawn),,,,> 100 µM,,,,> 100 µM,,,> 100 µM,,> 100 µM,,,,,,
C[C@]12CC[C@H](O)CC1=CC[C@@H]1[C@@H]2CC[C@]2(C)C(c3cccnc3)=CC[C@@H]12,,,19.2 µM,> 100 µM,,,> 38.5 µM,> 100 µM,46.1 µM,> 100 µM,,,,> 100 µM,> 100 µM,> 100 µM,> 100 µM,> 27.1 µM,38.4 µM
